Test system: platelets
Experiment: Example 4: light transmission aggregometry (LTA) induced by 5 and 20 μM ADP
Assay type: in vivo, human
Experimental: The study involved 12 patients who met the criteria of being 18-75 years of age, having coronary artery disease (CAD) documented by a previous MI or coronary revascularization, and taking 81 mg of aspirin daily. […] Prohibited concomitant medications included strong and potent CYP3A inhibitors, simvastatin and lovastatin at doses more than 40 mg/day, omeprazole or esomeprazole, and digoxin. Use of non-steroidal anti-inflammatory agents was discouraged during study participation but not prohibited.
Each patient was administered a 30 μg/kg bolus of cangrelor followed immediately by a 2 hr infusion at a rate of 4.0 μg/kg/min. A loading dose of ticagrelor (180 mg) was given after 0.5 hr or 1.25 hr (n=6 for each). Blood for pharmacodynamic platelet function studies was taken after 0.5 or 1.25 hr (corresponding to the time of ticagrelor load, n=6 for each), and then at 1.75, 2, 2.25, 2.5, 2.75, 3, 4, and 5.25 hr. Patients were assigned randomly to receive either 6 (n=6) or 7 (n=6) doses of ticagrelor to be taken every 12 hours following the discontinuation of the infusion of cangrelor. On study day 5, each patient was administered a 30 μg/kg bolus of cangrelor followed immediately by a 2 hr infusion at a rate of 4.0 μg/kg/min. Blood for pharmacodynamic assessment was taken after 1 and 2 hr. Adverse events were queried throughout study participation that ended with a telephone interview performed on study day 10-12.
Pharmacodynamic assessment included light transmission aggregometry (LTA), VerifyNow® P2Y12 assay, vasodilator-stimulated phosphoprotein (VASP) index, and platelet activation measured with the use of flow cytometry. Assessment of LTA, VerifyNow®, and platelet activation with the use of flow cytometry was performed within 30 min of blood being taken. In the case of flow cytometry, samples were processed to fixation and then batched for analysis. For VASP, index samples were batched and processed as recommended by the vendor within 2 h of blood being taken. This approach limited the time from fixation of VASP index to flow analysis to less than 1 h.
LTA induced by 5 μM and 20 μM adenosine diphosphate (ADP) was quantified ex vivo (i.e. in non-adjusted platelet rich plasma). Platelet-poor plasma was set as 100% aggregation, and both maximal (peak) and terminal (at 300 s) aggregation were measured with a PAP4 aggregometer (BioData, Horsham, Pa.). VerifyNow® P2Y12 assay (Accumetrics Inc, San Diego, Calif.) that measures the effects of drugs on the P2Y12 receptor by activating platelets with prostaglandin El in addition to ADP was used in accordance with the instructions provided by the manufacturer. Platelet reactivity was expressed in P2Y12 reaction units (PRU). Activation of platelets was identified with the use of flow cytometry as previously described.^17. And to determine the VASP index, a commercially available kit (Diagnostica Stago, Inc, Parsippany NJ) was used. ^17 Schneider D J, Sobel B E. Streamlining the design of promising clinical trials: in-vitro testing of antithrombotic regimens and multiple agonists of platelet activation. Coron Artery Dis. 2009; 20:175-8.

[1] = Study Day 1, 1.75 h, Ticagrelor at 0.5 hr
[2] = Study Day 1, 1.75 h, Ticagrelor at 1.25 hr
[3] = Study Day 1, 2.0 h, Ticagrelor at 0.5 hr
[4] = Study Day 1, 2.0 h, Ticagrelor at 1.25 hr
[5] = Study Day 1, reference 0.5/1.25 h, All
[6] = Study Day 1, reference 0.5/1.25 h, Ticagrelor at 0.5 hr
[7] = Study Day 1, reference 0.5/1.25 h, Ticagrelor at 1.25 hr
[8] = Study Day 5, 1.0 h, Ticagrelor 6 doses
[9] = Study Day 5, 1.0 h, Ticagrelor 7 doses
[10] = Study Day 5, 2.0 h, Ticagrelor 6 doses
[11] = Study Day 5, 2.0 h, Ticagrelor 7 doses

For `CSCCNc1nc(SCCC(F)(F)F)nc2c1ncn2[C@@H]1O[C@H](COP(=O)(O)OP(=O)(O)C(Cl)(Cl)P(=O)(O)O)[C@@H](O)[C@H]1O` [Cangrelor, cangrelor], the “IPA, 5 μM ADP, LTA” value (Study Day 1, 1.75 h, All) was 92 ± 5%, the “IPA, 20 μM ADP, LTA” value (Study Day 1, 1.75 h, All) was 97 ± 2% and the “PR, 5 μM ADP, LTA” value (Study Day 1, 1.75 h, All) was 3.4 ± 2.2%. For the same molecule, the “PR, 20 μM ADP, LTA” value (Study Day 1, 1.75 h, All) was 2.2 ± 1.4%, the “IPA, 5 μM ADP, LTA” value [1] was 92 ± 5% and the “IPA, 20 μM ADP, LTA” value [1] was 97 ± 2%. For the same molecule, the “PR, 5 μM ADP, LTA” value [1] was 4.2 ± 2.4%, the “PR, 20 μM ADP, LTA” value [1] was 2.3 ± 1.0% and the “IPA, 5 μM ADP, LTA” value [2] was 93 ± 6%. For the same molecule, the “IPA, 20 μM ADP, LTA” value [2] was 97 ± 3%, the “PR, 5 μM ADP, LTA” value [2] was 2.7 ± 1.8% and the “PR, 20 μM ADP, LTA” value [2] was 2 ± 1.8%. The “IPA, 5 μM ADP, LTA” value (Study Day 1, 2.0 h, All) was 92 ± 3%, the “IPA, 20 μM ADP, LTA” value (Study Day 1, 2.0 h, All) was 97 ± 3% and the “PR, 5 μM ADP, LTA” value (Study Day 1, 2.0 h, All) was 4.1 ± 2%. The “PR, 20 μM ADP, LTA” value (Study Day 1, 2.0 h, All) was 2.3 ± 2.2%, the “IPA, 5 μM ADP, LTA” value [3] was 91 ± 3% and the “IPA, 20 μM ADP, LTA” value [3] was 95 ± 2%. For the same molecule, the “PR, 5 μM ADP, LTA” value [3] was 4.8 ± 1.9%, the “PR, 20 μM ADP, LTA” value [3] was 3.5 ± 1.9% and the “IPA, 5 μM ADP, LTA” value [4] was 93 ± 3%. The “IPA, 20 μM ADP, LTA” value [4] was 98 ± 3%, the “PR, 5 μM ADP, LTA” value [4] was 3.3 ± 2% and the “PR, 20 μM ADP, LTA” value [4] was 1.2 ± 1.9%. For the same molecule, the “IPA, 5 μM ADP, LTA” value [5] was 93 ± 3%, the “IPA, 20 μM ADP, LTA” value [5] was 98 ± 2% and the “PR, 5 μM ADP, LTA” value [5] was 3.6 ± 1.8%. The “PR, 20 μM ADP, LTA” value [5] was 1.7 ± 1.7%, the “IPA, 5 μM ADP, LTA” value [6] was 92 ± 4% and the “IPA, 20 μM ADP, LTA” value [6] was 97 ± 2%. The “PR, 5 μM ADP, LTA” value [6] was 4.2 ± 2.1%, the “PR, 20 μM ADP, LTA” value [6] was 2 ± 1.5% and the “IPA, 5 μM ADP, LTA” value [7] was 93 ± 2%. The “IPA, 20 μM ADP, LTA” value [7] was 98 ± 3%, the “PR, 5 μM ADP, LTA” value [7] was 3 ± 1.4% and the “PR, 20 μM ADP, LTA” value [7] was 1.3 ± 2.0%. The “IPA, 5 μM ADP, LTA” value (Study Day 5, 1.0 h, All) was 96 ± 3%, the “IPA, 20 μM ADP, LTA” value (Study Day 5, 1.0 h, All) was 98 ± 2% and the “PR, 5 μM ADP, LTA” value (Study Day 5, 1.0 h, All) was 2.1 ± 1.7%. The “PR, 20 μM ADP, LTA” value (Study Day 5, 1.0 h, All) was 1.5 ± 1.5%, the “IPA, 5 μM ADP, LTA” value [8] was 96 ± 4% and the “IPA, 20 μM ADP, LTA” value [8] was 98 ± 2%. The “PR, 5 μM ADP, LTA” value [8] was 1.5 ± 1.6%, the “PR, 20 μM ADP, LTA” value [8] was 1.5 ± 1.6% and the “IPA, 5 μM ADP, LTA” value [9] was 96 ± 3%. The “IPA, 20 μM ADP, LTA” value [9] was 98 ± 2%, the “PR, 5 μM ADP, LTA” value [9] was 2.7 ± 1.6% and the “PR, 20 μM ADP, LTA” value [9] was 1.5 ± 1.5%. For the same molecule, the “IPA, 5 μM ADP, LTA” value (Study Day 5, 2.0 h, All) was 96 ± 4%, the “IPA, 20 μM ADP, LTA” value (Study Day 5, 2.0 h, All) was 98 ± 2% and the “PR, 5 μM ADP, LTA” value (Study Day 5, 2.0 h, All) was 2.2 ± 2.2%. The “PR, 20 μM ADP, LTA” value (Study Day 5, 2.0 h, All) was 1.3 ± 1.6%, the “IPA, 5 μM ADP, LTA” value [10] was 97 ± 3% and the “IPA, 20 μM ADP, LTA” value [10] was 98 ± 1%. For the same molecule, the “PR, 5 μM ADP, LTA” value [10] was 1.5 ± 1.5%, the “PR, 20 μM ADP, LTA” value [10] was 1.2 ± 1.5% and the “IPA, 5 μM ADP, LTA” value [11] was 95 ± 5%. For the same molecule, the “IPA, 20 μM ADP, LTA” value [11] was 98 ± 3%, the “PR, 5 μM ADP, LTA” value [11] was 2.8 ± 2.7% and the “PR, 20 μM ADP, LTA” value [11] was 1.5 ± 1.9%. The “residual reactivity, maximal” value (combined overall population, 0.5 h after cangrelor was stopped, ticagrelor loaded during infusion) was 19% and the residual reactivity (combined overall population, end of observation period (5.25 h)) was < 5%.

From patent US8680052B1, “Methods of treating, reducing the incidence of, and/or preventing ischemic events” (The Medicines Company, priority 2013, dated 2014)
